A short description of data set [1]: Cytotoxicity, ^3 H-LEU assay (HeLa cell translation). Format: cell-based. As to conditions: human, hela cells, inhibition of cellular translational activity, overnight/24 hrs incubation, read-out: CYTOTOXICITY ^3 H-LEU ASSAY IC50. As to the method: (§1) HeLa and Vero cell cultures were maintained in Eagles Minimal Essential Medium which was supplemented with glutamine, penicillin, streptomycin and 10% fetal calf serum (10% EMEM). Stock cultures of HSV-2 (strain MS available from ATCC VR-540) were grown in and harvested from Vero cells. Viral stocks were titered in Vero cells according to established procedures.
(§2) HeLa cells were treated with inhibitory compound for 24 hrs, after which levels of translational activity were assayed.
(§3) For assay of translational activity, HeLa cultures were grown to 80% confluency in 96 well microtiter plates, treated with appropriate concentrations of compound in 2% EMEM during an overnight incubation at 37° C., then rinsed with HBSS and overlaid with […] of 2% EMEM containing 8 uCi of tritiated leucine (^3 H-LEU, […], Amersham Corp., Arlington Heights Ill.). After a 1 hr incubation at 36.5° C., the cells were rinsed twice with phosphate buffered saline (PBS) and lysed in 400 ul/well of 1×PBS, 0.5% sodium dodecyl sulphate (SDS). After a 10 min incubation at 36.5° C., the contents of the well were transferred to a well in a Millititer HA microfiltration plate (Millipore Corp., Bedford, Mass.). The TCA insoluble proteins were precipitated onto the filter disc by a 10 min fixation with 5% TCA, followed by filtration under vacuum and three 10 minute rinses with 95% ethanol. The filters were dried at room temperature, cut from the milltitier plate and transferred to scintillation vials. TCA precipitable counts were assayed in 5 ml of Scintisol (Isolab, Akron, Ohio). The inhibitory activity of a compound was plotted versus the concentration and an IC50 value (that concentration of the compound required to decrease cellular translational activity by 50%) was derived for each compound.

In data set [2] the test system is CMV (strain Towne). In words: CMV-β-Gal assay: transient expression of beta galactosidase, plasmid pON249 ΔNH3, in human foreskin fibroblasts. Format: cell-based. As to conditions: multiple numbers = additional tests; for ANTI-CMV ACTIVITY CMV-β-Gal ASSAY IC50: CMV strain Towne, human foreskin fibroblasts; for IC50: Human betaherpesvirus 5, Fibroblast, read-out: ANTI-CMV ACTIVITY CMV-β-Gal ASSAY IC50, CMV strain Towne, human foreskin fibroblasts. As to the method: (§4) All determinations of beta galactosidase activity were performed in 96 well microtiter plates. The intracellular level of beta galactosidase activity in each well was determined from cell lysates of the monolayer cultures. […] The generation of fluorescent product was quantified on a Microfluor microfluorimeter (Dynatech) after addition of 0.1M glycine, pH 10.3 (Spaete and Mocarski, 1985). The inhibitory activity of a compound was plotted versus the concentration and an IC50 value (the concentration of compound required to reduce beta glactosidase expression by 50%) was obtained for each compound tested.
The in-vitro CMV activity of the compounds represented by Formulas 1.1 and 1.3 were determined using the following CMV assay.
Human foreskin fibroblast (HHF) cell cultures were grown in 10% EMEM. CMV (strain Towne received from Stanford University) was grown and titered in HHF cells. Plasmids pON249 ΔNH3, containing CMV promoter genes, were used in the β-galactosidase transient expression assay as shown above.
More than one number for a particular entry indicates the results of additional tests.

Data set [3] deals with HSV-2 (strain MS). In words: HSV-β-GAL assay: transient expression of beta galactosidase in pON 245^ori- transfected HeLa cells infected with HSV-2. Format: cell-based. As to conditions: multiple numbers = additional tests; for IC50: Human alphaherpesvirus 2, HeLa, 24 h. As for the experimental part:
as §1
Plasmid pON 245^ori- contains the promoter of the HSV-1 thymidine kinase (tk) gene located immediately 5' of the E. coli lac Z gene. In this arrangement, the tk promoter controls transcription from the bacterial gene in transient expression assays. Additionally, an SV40 polyadenylation signal is present at the 3' end of the lac Z gene to allow for the efficient translation of the mRNA in eucaryotic cells. The expression of beta galactosidase in a transient assay using pON 245^ori- is dependent upon superinfection of the transfected cells with HSV. […] For example, see U.S. application Ser. No. 07/435,491 filed Sep. 5, 1989, the disclosure of which is incorporated herein by reference thereto.
HeLa cells were seeded into 96 well microtiter plates and allowed to grow to 80% confluency (approximately 35000 cells/well). One half microgram of plasmid pON 245^ori- DNA was introduced into the cells of each well by the […] precipitation technique (Grahman and Van der Eb, 1973). Four to six hours later, the cells were rinsed with Hank's Balanced Salt Solution (HBSS), overlaid with 10% EMEM and incubated at 37° C. At 24 hrs post-transfection, cells were rinsed, overlaid with 10% EMEM again and re-incubated at 37° C. At 48 hrs. post-transfection, cells were rinsed and overlaid with either EMEM containing 2% fetal calf serum (2% EMEM), 2% EMEM containing HSV-2 (strain MS, Multiplicity of infection [moi]=5 pfu/cell) or 2% EMEM containing HSV-2 and the appropriate concentration of the compound to be tested. Twenty-four hrs later, the cells were harvested and assayed for beta galactosidase activity as described below.
as §4
The in-vitro anti-HSV activity of compounds of this invention is set forth in Table I. More than one number for a particular entry indicates the results for additional tests.

Data set [4] can be described thus: CMV toxicity assay, ^3 H-LEU assay in HFF cells. As to conditions: human, read-out: CYTOTOXICITY ^3 H-LEU ASSAY IC50 (CMV toxicity assay). In kind it is cell-based.
Data set [5] deals with HSV-2, strain MS. In words: Prophylactic guinea pig model of HSV infection (genital lesions, Maximum Lesion scores). In kind it is in vivo. As to conditions: subcutaneous, 60 mg per kg, every eight hours for 10 days, from 24 hrs prior to infection. As to the method: The in vivo assessment of anti-HSV efficacy was determined in the prophylactic guinea pig model of HSV infection described by Stansberry et al (1982). Dosing of guinea pigs was comprised of an initial treatment with test compound given 24 hrs prior to virus infection and subsequent administration of the compound every eight hours (T.I.D.) for a total of 10 days. Test compounds were administered subcutaneously in 0.5% buffered methyl cellulose at a dose of 60 mg per kg body weight of the animal. Animals were monitored daily for the developement of genital lesions and neurological symptomology, both of which were recorded and compared to the results obtained with parallel groups which received placebo or acyclovir treatment. Efficacy was evaluated for each compound by scoring the ability of the compound to ameliorate genital lesions produced by infection with HSV-2, strain MS, expressed as Maximum Lesion scores (MLS) on a scale of 1 (least lesions) to 4 (severe lesions).

In data set [6] the test system is HeLa cells. In words: Cytotoxicity, ^3 H-LEU assay (HeLa cell translation). Format: cell-based. As to conditions: inhibition of cellular translational activity, overnight/24 hrs incubation, 1440 min. As to the method: as §1, §2, §3
In data set [7] the test system is HSV. As to conditions: added to lidocaine or lidocaine hydrochloride; U.S. Pat. No. 4,757,088; cited from earlier work.
Data set [8] concerns HSV-2. As to conditions: U.S. Pat. No. 4,757,088; cited from earlier work.
For data set [9], the system named is HSV-1. As to conditions: U.S. Pat. No. 4,757,088; cited from earlier work.
The subject of data set [10] is herpes virus. As to conditions: U.S. Pat. No. 4,757,088; cited from earlier work.
In data set [11] the test system is HSV. As to conditions: U.S. Pat. No. 4,757,088; cited from earlier work.
Setting [12] is: HSV-2 strain MS, moi 5 pfu/cell, HeLa cells, 24 hrs, read-out: ANTI-HSV ACTIVITY HSV-β-GAL ASSAY IC50.

This is an account of results in patent publication US5179107A, “Antiviral quinolinone compounds” (Schering Corporation, priority 1991, dated 1993).

Where “and” joins values, the source holds several entries; their conditions need not be identical. Equal entries are not always repeated. Where two headings read alike, the source gives them in different places.

Turning to `Cn1c(=O)c(O)c(O)c2ccccc21` [Formula 1.1], the CC50 at 24 h in data set [1] was 21 µg/mL. In addition, in data set [2], the “ANTI-CMV ACTIVITY CMV-β-Gal ASSAY IC50” value was 1 µg/mL and the IC50 stood at 1.5 µg/mL. In addition, the IC50 in data set [3] (read-out: ANTI-HSV ACTIVITY HSV-β-GAL ASSAY IC50, HSV-2 strain MS, moi 5 pfu/cell, HeLa cells, 24 hrs) is less than 3 µg/mL. In addition, the CC50 in [4] was 36 µg/mL. Further, the “In-vivo anti-HSV activity” value in data set [5] is “inactive”.
Consider `O=c1c(O)c(O)c2ccccc2n1Cc1ccccc1` [Formula 1.2], for which the CC50 at 24 h in data set [1] was determined as 32 µg/mL.
Regarding `CCCCCCCn1c(=O)c(O)c(O)c2ccccc21` [Formula 1.3], the “CYTOTOXICITY ^3 H-LEU ASSAY IC50” value in data set [6] turned out to be 30 µg/mL. For the same molecule, in [1], the CC50 at 24 h worked out at 37 µg/mL. In addition, in [2], the “ANTI-CMV ACTIVITY CMV-β-Gal ASSAY IC50” value worked out at 9 µg/mL and the IC50 was 13 µg/mL. The “ANTI-HSV ACTIVITY HSV-β-GAL ASSAY IC50” value in [3] (HSV-2 strain MS, moi 5 pfu/cell, HeLa cells, 24 hrs) is 2 µg/mL and 3 µg/mL. Also, in data set [3] (setting [12]), the IC50 is less than 3 µg/mL. In addition, in [4], the CC50 worked out at 25 µg/mL.
For the molecule `Cn1cccc1C(=O)Oc1c(OC(=O)c2cccn2C)c2ccccc2n(C)c1=O` [Formula 1.4], the CC50 at 24 h in [1] is greater than 100 µg/mL.
For `Cn1c(=O)c(OC(=O)c2ccc[nH]2)c(OC(=O)c2ccc[nH]2)c2ccccc21` [Formula 1.5], in [1], the CC50 at 24 h came to 28 µg/mL.
For `O=c1c(O)c(O)c2ccccc2n1-c1ccccc1` [Formula 1.6], the CC50 at 24 h in [1] was found to be 8 µg/mL. Besides, the IC50 in [3] (setting [12]) came to 9 µg/mL.
Take `Cn1c(=O)c(OC(=O)c2ccc(Br)o2)c(OC(=O)c2ccc(Br)o2)c2ccccc21` [Formula 1.7]: the CC50 at 24 h in data set [1] is greater than 50 µg/mL. Moreover, the IC50 in data set [3] (setting [12]) was 10 µg/mL.
Take `Cn1c(=O)c(OC(=O)c2cccs2)c(OC(=O)c2cccs2)c2ccccc21` [Formula 1.8]: the CC50 at 24 h in data set [1] is greater than 50 µg/mL. In addition, the IC50 in [3] (setting [12]) came out at 19 µg/mL.
As for `Cn1c(=O)c(OC(=O)c2ccccc2)c(OC(=O)c2ccccc2)c2ccccc21` [Formula 1.9], the CC50 at 24 h in data set [1] was 58 µg/mL. In addition, the IC50 in data set [3] (setting [12]) is 20 µg/mL.
The corresponding values for `CCC(=O)Oc1c(OC(=O)CC)c2ccccc2n(C)c1=O` [Formula 1.10] are 34 µg/mL and 17 µg/mL.
For `COc1c(OC)c2ccccc2n(C)c1=O` [Formula 1.11], the CC50 at 24 h in [1] was greater than 100 µg/mL. For the same molecule, the IC50 in data set [3] (setting [12]) was found to be 25 µg/mL.
As for `CC(C)(CO)[C@@H](O)C(=O)NCCCO` [dexpanthenol], the “effect of addition to lidocaine or lidocaine hydrochloride on their antiviral activity” value in data set [7] is “significantly enhances the antiviral activity”.
Consider `CCN(CC)CC(=O)Nc1c(C)cccc1C` [lidocaine, 2-(diethylamino)-N-(2,6-dimethylphenyl)acetamide], for which the “antiviral activity in cell culture against HSV-2” value in [8] is recorded as “antiviral agent”. Moreover, the “antiviral activity in cell culture against HSV-1” value in data set [9] is “antiviral agent”. The “treatment of herpes virus infections of mammals” value in data set [10] is reported as “able to treat herpes virus infections of mammals”. Besides, the “treatment of HSV oral and genital lesions in humans” value in [11] was “particularly effective”.
For `CC(C)(CO)[C@@H](O)C(=O)NCCC(=O)O` [pantothenic acid], the “effect of addition to lidocaine or lidocaine hydrochloride on their antiviral activity” value in [7] was “significantly enhances the antiviral activity”.
